According to article PMC4988499, “Pinpointing a Mechanistic Switch Between Ketoreduction and “Ene” Reduction in Short‐Chain Dehydrogenases/Reductases” (Angewandte Chemie (Weinheim an Der Bergstrasse, Germany), 2016):

Assays:
[1] = biological target: T1, MNMR ((−)‐menthone:(+)‐neomenthol reductase) (Mentha x piperita, UniProt Q06ZW2); test: X-ray crystal structure (soaking); type: binding; settings: coenzyme site
T1 construct: recombinant; catalytic Tyr244

[2] = biological target: T2, IPR (isopiperitenone reductase) (Mentha x piperita, UniProt Q6WAU1); test: X-ray crystal structure; type: binding
T2 construct: recombinant; NADP+ scavenged from host cells; catalytic Glu238
T2 sequence (Q6WAU1 whole entry): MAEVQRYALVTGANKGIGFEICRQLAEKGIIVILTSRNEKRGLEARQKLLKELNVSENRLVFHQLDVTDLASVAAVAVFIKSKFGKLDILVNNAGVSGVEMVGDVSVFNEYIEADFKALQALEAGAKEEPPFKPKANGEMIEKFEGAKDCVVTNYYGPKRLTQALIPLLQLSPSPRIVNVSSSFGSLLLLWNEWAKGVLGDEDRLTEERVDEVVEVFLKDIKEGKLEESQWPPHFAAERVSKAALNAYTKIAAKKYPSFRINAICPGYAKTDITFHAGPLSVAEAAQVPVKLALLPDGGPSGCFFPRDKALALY

T1 sequence (Q06ZW2 entry or part of it): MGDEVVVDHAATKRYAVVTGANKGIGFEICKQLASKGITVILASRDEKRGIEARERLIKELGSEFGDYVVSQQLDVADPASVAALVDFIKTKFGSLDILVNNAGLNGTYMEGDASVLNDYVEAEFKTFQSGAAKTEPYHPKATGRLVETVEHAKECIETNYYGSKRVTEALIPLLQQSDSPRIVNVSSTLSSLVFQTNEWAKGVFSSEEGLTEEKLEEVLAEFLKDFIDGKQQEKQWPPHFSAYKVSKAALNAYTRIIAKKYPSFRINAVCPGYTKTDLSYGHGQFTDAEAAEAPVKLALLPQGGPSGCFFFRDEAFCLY

| SMILES | X-ray crystal structure (soaking) [1] | X-ray crystal structure ([2]; scavenged from expression host) | X-ray crystal structure ([2]; active site, non-substrate, with NADP+) |
| --- | --- | --- | --- |
| NC(=O)c1ccc[n+]([C@@H]2O[C@H](COP(=O)(O)OP(=O)(O)OC[C@H]3O[C@@H](n4cnc5c(N)ncnc54)[C@H](OP(=O)(O)O)[C@@H]3O)[C@@H](O)[C@H]2O)c1 [NADP^+] | A coenzyme‐bound MNMR structure was obtained by soaking crystals with NADP^+ | clear density in the F0−Fc map for NADP^+ | – |
| CC1=C(C=O)C(C)(C)CCC1 [β‐cyclocitral] | – | – | The IPR–β‐cyclocitral co‐crystal structure shows the ligand binds in a non‐active conformation |
